Results on 16 molecules are retold here after publication PMC10535535, “Imidazopyridine-Based Thiazole Derivatives as Potential Antidiabetic Agents: Synthesis, In Vitro Bioactivity, and In Silico Molecular Modeling Approach” (Pharmaceuticals, 2023).

The structures appear in SMILES notation.

One assay concerns the target α-glucosidase. Kind of assay: α-glucosidase inhibition assay (pNPG, spectrophotometric). Conditions: in vitro, pNPG substrate, 37 °C, triplicate; read-out: IC50 ± SEM. Format: biochemical. Here is the method:
With slight modification to an earlier technique, the α-glucosidase inhibition profiles of the synthesized scaffolds were assessed spectrophotometrically. Amounts of 10 μL of the sample, 120 μL of 100 mM potassium phosphate buffer, and […] of a 0.5 U/mL α-glucosidase solution (0.3 mM, in buffer) were combined for each chemical. […] Each combination was incubated at 37 °C for a separate period of 15 min. […] Once more, the mixture was incubated for 15 min at 37 °C. At that point, 80 μL of a 0.2 M sodium carbonate solution was administered to terminate the process. The mixture that included no enzymes also functioned as a blank sample. At 405 nm, the absorbance was finally calculated. To accurately measure the background absorbance, the blank sample, which replaced the substrate with 50 μL of the buffer, was examined. […] Assuming that A represents the absorbance of the control without test samples and B represents the absorbance with test samples present, the percentage of enzyme inhibition was computed as (1 B/A) 100. […] 4.4. Assay protocol for α-glucosidase inhibition The α-glucosidase inhibition profiles of synthesized scaffolds were determined spectrophotometrically, with some modifications to an earlier method. For each chemical, 10 μL of the sample, 120 μL of 100 mM potassium phosphate buffer, and 20 μL of 0.5 U/mL alpha-glucosidase solution was mixed (0.3 mM, in buffer). […] At 37 °C, each mixture was incubated for a separate 15 minutes. The enzymatic reaction was initiated by adding 20 μL of the substrate 4-nitrophenyl- D-α-glucopyranoside (pNPG) (5 mM) to the solution. The mixture was once more incubated at 37 °C for 15 minutes. To stop the process at that point, 80μL of sodium carbonate solution were injected (0.2 M). Additionally, the mixture without any enzymes served as a blank sample. The absorbance was finally determined at 405 nm. The blank sample, in which the substrate was swapped out for 50 μL of the buffer, was analyzed to properly quantify the background absorbance. […] The percentage of enzyme inhibition was calculated as (1 B/A) 100, assuming that A represents the absorbance of the control without test samples and B represents the absorbance with test samples present. The analyses were carried out in triplicate, and the results were presented as mean SD. 4.5. […] On the Discovery Studio R2 64-bit Client system, interactive molecular structure visualization and analysis were done. From the RCSB Protein Data Bank, the three-dimensional (3D) structure of α-glucosidase was retrieved (PDB). The chemical structures of the ligands were obtained from the Pub Chem compound database. Using Open Babel, the PDB files were converted into PDBQT files. For docking analysis, the PDB coordinates of the ligands and targets were optimized. Geometry optimization is carried out using Gaussian 09 (adding missing residues). […] Further details were summarized in our previous articles.
Consider `COc1ccc(-c2csc(N/N=C\c3cnc4ccc(F)cn34)n2)c(OC)c1` [4m], for which the IC50 is 56.3 ± 5.94 µM.

Regarding `Cc1ccc(-c2ccc(-c3csc(N/N=C\c4cnc5ccc(F)cn45)n3)cc2)cc1` [4n], the IC50 turned out to be 61.4 ± 4.56 µM.

Regarding `COc1cc(O)ccc1-c1csc(N/N=C\c2cnc3ccc(F)cn23)n1` [4i], the IC50 is 34.9 ± 5.84 µM.

With `O=[N+]([O-])c1ccc(O)c(-c2csc(N/N=C\c3cnc4ccc(F)cn34)n2)c1` [4o, (Z)-2-(2-(2-((6-fluoroimidazo[1,2-a]pyridin-3-yl)methylene)hydrazineyl)thiazol-4-yl)-4-nitrophenol], the IC50 stood at 7.16 ± 1.4 µM.

Consider `Cc1cc(Cl)ccc1-c1csc(N/N=C\c2cnc3ccc(F)cn23)n1` [4k], for which the IC50 was 34.7 ± 5.23 µM.

Consider `Fc1ccc2ncc(/C=N\Nc3nc(-c4ccc(Cl)cc4Cl)cs3)n2c1` [4l], for which the IC50 turned out to be 19.3 ± 2.58 µM.

For `Cc1ccc(-c2csc(N/N=C\c3cnc4ccc(F)cn34)n2)c([N+](=O)[O-])c1` [4j], the IC50 was 22.6 ± 3.55 µM.

Consider `COc1cc(C)ccc1-c1csc(N/N=C\c2cnc3ccc(F)cn23)n1` [4e], for which the IC50 is 44.9 ± 5.27 µM.

On to `O=[N+]([O-])c1cc(-c2csc(N/N=C\c3cnc4ccc(F)cn34)n2)cc(C(F)(F)F)c1` [4a], for which the IC50 was 6.85 ± 2.18 µM.

As for `O=[N+]([O-])c1cc(Cl)ccc1-c1csc(N/N=C\c2cnc3ccc(F)cn23)n1` [4b], the IC50 turned out to be 13.6 ± 1.67 µM.

Regarding `Fc1ccc2ncc(/C=N\Nc3nc(-c4ccc(-c5ccccc5)cc4)cs3)n2c1` [4c], the IC50 amounted to 63.5 ± 5.28 µM.

With `CN(C)c1ccc(-c2csc(N/N=C\c3cnc4ccc(F)cn34)n2)cc1` [4d], the IC50 amounted to 32.1 ± 4.29 µM.

For `O=[N+]([O-])c1ccc(C(F)(F)F)c(-c2csc(N/N=C\c3cnc4ccc(F)cn34)n2)c1` [4g], the IC50 worked out at 5.57 ± 3.45 µM.

For the molecule `Oc1ccc(-c2csc(N/N=C\c3cnc4ccc(F)cn34)n2)c(O)c1` [4p], the IC50 stood at 10.5 ± 2.2 µM.

`Cc1ccccc1-c1csc(N/N=C\c2cnc3ccc(F)cn23)n1` [4h]: the IC50 turned out to be 43.2 ± 6.16 µM.

For `Cc1ccc(-c2csc(N/N=C\c3cnc4ccc(F)cn34)n2)c(C)c1` [4f], the IC50 amounted to 51 ± 5.8 µM.

The assay is the same for the next values; noted with them: unit not given; in µM.
For `COc1cc(O)ccc1-c1csc(N/N=C\c2cnc3ccc(F)cn23)n1` [4i], the IC50 was 34.91 ± 5.84.

The same assay, now with this note: versus acarbose.
`Fc1ccc2ncc(/C=N\Nc3nc(-c4ccc(Cl)cc4Cl)cs3)n2c1` [4l]: the “potency as compared to the standard drug” value was “two-fold more potency”.

On to `Cc1ccc(-c2csc(N/N=C\c3cnc4ccc(F)cn34)n2)c([N+](=O)[O-])c1` [4j], for which the “potency as compared to the standard drug” value is “two-fold more potency”.
